The target in the assay is interaction of human SOS1 (SOS1) with human K-RasG12C (Homo sapiens (Human), UniProt Q07889). The experiment in a line: Biochemical assay: hK-RasG12C interaction assay with hSOS1 (HTRF). It counts as binding. Conditions: GST-hK-RasG12C with His-hSOS1, 60 min incubation at 20° C., mean, read-out: K-RasG12C - SOS interaction assay IC50 (mean). The method, boiled down:
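Compounds, duplicates at 11 concentrations from 0.073 nM to 20 µM, were preincubated 2 min with 10 nM GST-hK-RasG12C, then 20 nM His-hSOS1 was added, all at 20 °C. After 60 min, 665/620 nm HTRF ratio normalized to DMSO and SOS1-free controls; IC50 by 4-parameter fit.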
A general note: Time-resolved FRET reads energy transfer from a long-lived donor to a nearby acceptor.

Each structure is given as a SMILES string.

In general, IC50 refers to the concentration needed to halve the response being measured.

Chain of interaction of human SOS1 (SOS1) with human K-RasG12C (Q07889 564-1049 limits assumed): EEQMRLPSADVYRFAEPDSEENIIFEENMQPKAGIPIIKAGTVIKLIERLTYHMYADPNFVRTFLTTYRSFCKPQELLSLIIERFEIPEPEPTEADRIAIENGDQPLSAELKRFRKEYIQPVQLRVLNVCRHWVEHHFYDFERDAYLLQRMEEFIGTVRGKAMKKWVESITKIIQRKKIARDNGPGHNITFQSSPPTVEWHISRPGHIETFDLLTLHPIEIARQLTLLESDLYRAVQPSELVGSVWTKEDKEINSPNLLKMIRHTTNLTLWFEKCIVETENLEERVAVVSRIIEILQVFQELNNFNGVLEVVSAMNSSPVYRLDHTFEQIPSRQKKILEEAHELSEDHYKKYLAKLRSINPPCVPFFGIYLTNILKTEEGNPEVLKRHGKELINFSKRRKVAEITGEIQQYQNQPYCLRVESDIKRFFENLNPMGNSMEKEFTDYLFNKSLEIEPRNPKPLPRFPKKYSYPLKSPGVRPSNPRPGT

Take `Cc1nc(N[C@H](C)c2cccc(C(F)F)c2F)c2cc(P3(=O)CCN(C(=O)C4CC4)CC3)ncc2n1` [Example 163, 1-(cyclopropanecarbonyl)-4-[4-({(1R)-1-[3-(difluoromethyl)-2-fluorophenyl]ethyl}amino)-2-methylpyrido[3,4-d]pyrimidin-6-yl]-1,4lambda^5-azaphosphinan-4-one]: the 50% inhibitory concentration (IC50) is 4.77 nM.
As to `Cc1nc(N[C@H](C)c2cccc(C(F)(F)F)c2C)c2cc(P3(=O)CCN(C(=O)C4COC4)CC3)ncc2n1` [Example 164, 4-[2-methyl-4-{{(1R)-1-[2-methyl-3-(trifluoromethyl)phenyl]ethyl}amino)pyrido[3,4-d]pyrimidin-6-yl]-1-(oxetane-3-carbonyl)-1,4lambda^5-azaphosphinan-4-one], the IC50 stood at 7.01 nM.
Regarding `Cc1nc(N[C@H](C)c2cccc(C(F)(F)F)c2C)c2cc(P3(=O)CCN(C(=O)[C@H](C)O)CC3)ncc2n1` [Example 165, 1-[(2S)-2-hydroxypropanoyl]-4-[2-methyl-4-{{(1R)-1-[2-methyl-3-(trifluoromethyl)phenyl]ethyl}amino)pyrido[3,4-d]pyrimidin-6-yl]-1,4lambda^5-azaphosphinan-4-one], the IC50 was found to be 4.37 nM.
The same measure for `Cc1nc(N[C@H](C)c2cccc(C(F)(F)F)c2C)c2cc(P3(=O)CCN(C(=O)[C@@H](C)O)CC3)ncc2n1` [Example 166, 1-[(2R)-2-hydroxypropanoyl]-4-[2-methyl-4-{{(1R)-1-[2-methyl-3-(trifluoromethyl)phenyl]ethyl}amino)pyrido[3,4-d]pyrimidin-6-yl]-1,4lambda^5-azaphosphinan-4-one]: 4.83 nM; for `Cc1nc(N[C@H](C)c2cccc(C(F)(F)F)c2C)c2cc(P3(=O)CCN(C(=O)C4(C#N)CC4)CC3)ncc2n1` [Example 167, 1-{4-[2-methyl-4-{{(1R)-1-[2-methyl-3-(trifluoromethyl)phenyl]ethyl}amino)pyrido[3,4-d]pyrimidin-6-yl]-4-oxo-1,4lambda^5-azaphosphinane-1-carbonyl}cyclopropane-1-carbonitrile]: 12.7 nM; for `Cc1nc(N[C@H](C)c2cccc(C(F)(F)F)c2C)c2cc(P3(=O)CCN(C(=O)C4(F)CC4)CC3)ncc2n1` [Example 168, 1-(1-fluorocyclopropane-1-carbonyl)-4-[2-methyl-4-({(1R)-1-[2-methyl-3-(trifluoromethyl)phenyl]ethyl}amino)pyrido[3,4-d]pyrimidin-6-yl]-1,4lambda^5-azaphosphinan-4-one]: 12 nM.
The same measure for `Cc1nc(N[C@H](C)c2cccc(C(F)(F)F)c2C)c2cc(P3(=O)CCN(C(=O)C4(C(F)F)CC4)CC3)ncc2n1` [Example 169, 1-[1-(difluoromethyl)cyclopropane-1-carbonyl]-4-[2-methyl-4-({(1R)-1-[2-methyl-3-(trifluoromethyl)phenyl]ethyl}amino)pyrido[3,4-d]pyrimidin-6-yl]-1,4lambda^5-azaphosphinan-4-one]: 9.55 nM.
To `Cc1nc(N[C@H](C)c2cccc(C(F)(F)F)c2C)c2cc(P3(=O)CCN(C(=O)C4CC(F)(F)C4)CC3)ncc2n1` [Example 170, 1-(3,3-difluorocyclobutane-1-carbonyl)-4-[2-methyl-4-({(1R)-1-[2-methyl-3-(trifluoromethyl)phenyl]ethyl}amino)pyrido[3,4-d]pyrimidin-6-yl]-1,4lambda^5-azaphosphinan-4-one] belongs 11.3 nM; to `Cc1nc(N[C@H](C)c2cccc(C(F)(F)F)c2C)c2cc(P3(=O)CCN(C(=O)C(C)C)CC3)ncc2n1` [Example 171, 4-[2-methyl-4-{{(1R)-1-[2-methyl-3-(trifluoromethyl)phenyl]ethyl}amino)pyrido[3,4-d]pyrimidin-6-yl]-1-(2-methylpropanoyl)-1,4lambda^5-azaphosphinan-4-one], 6.76 nM.
As for `Cc1nc(N[C@H](C)c2cccc(C(F)(F)C(C)(C)O)c2F)c2cc(P3(=O)CCN(C(=O)C4CC4)CC3)ncc2n1` [Example 172, 1-(cyclopropanecarbonyl)-4-[4-{{(1R)-1-[3-(1,1-difluoro-2-hydroxy-2-methylpropyl)-2-fluorophenyl]ethyl}amino)-2-methylpyrido[3,4-d]pyrimidin-6-yl]-1,4lambda^5-azaphosphinan-4-one], the IC50 is 4.78 nM.
`Cc1nc(N[C@H](C)c2cccc(C(F)(F)F)c2C)c2cc(P3(=O)CCN(C(=O)C4(O)CC4)CC3)ncc2n1` [Example 173, 1-(1-hydroxycyclopropane-1-carbonyl)-4-[2-methyl-4-({(1R)-1-[2-methyl-3-(trifluoromethyl)phenyl]ethyl}amino)pyrido[3,4-d]pyrimidin-6-yl]-1,4lambda^5-azaphosphinan-4-one]: the IC50 stood at 5.62 nM.
The same measure for `Cc1nc(N[C@H](C)c2cccc(C(F)(F)F)c2C)c2cc(P3(=O)CCN(C(=O)C4CC4)CC3)ncc2n1` [Example 174, 1-(cyclopropanecarbonyl)-4-[2-methyl-4-({(1R)-1-[2-methyl-3-(trifluoromethyl)phenyl]ethyl}amino)pyrido[3,4-d]pyrimidin-6-yl]-1,4lambda^5-azaphosphinan-4-one]: 3.89 nM; for `Cc1nc(N[C@H](C)c2cccc(C(F)(F)F)c2C)c2cc(P3(=O)CCN(C(=O)c4cnn(C)c4)CC3)ncc2n1` [Example 175, 4-[2-methyl-4-{{(1R)-1-[2-methyl-3-(trifluoromethyl)phenyl]ethyl}amino)pyrido[3,4-d]pyrimidin-6-yl]-1-(1-methyl-1H-pyrazole-4-carbonyl)-1,4lambda^5-azaphosphinan-4-one]: 9.07 nM; for `CO[C@@H](C)C(=O)N1CCP(=O)(c2cc3c(N[C@H](C)c4cccc(C(F)(F)F)c4C)nc(C)nc3cn2)CC1` [Example 176, 1-[(2S)-2-methoxypropanoyl]-4-[2-methyl-4-{{(1R)-1-[2-methyl-3-(trifluoromethyl)phenyl]ethyl}amino)pyrido[3,4-d]pyrimidin-6-yl]-1,4lambda^5-azaphosphinan-4-one]: 6.82 nM.
To `COCC(=O)N1CCP(=O)(c2cc3c(N[C@H](C)c4cccc(C(F)(F)F)c4C)nc(C)nc3cn2)CC1` [Example 177, 1-(methoxyacetyl)-4-[2-methyl-4-({(1R)-1-[2-methyl-3-(trifluoromethyl)phenyl]ethyl}amino)pyrido[3,4-d]pyrimidin-6-yl]-1,4lambda^5-azaphosphinan-4-one] belongs 5.01 nM; to `Cc1nc(N[C@H](C)c2cccc(C(F)(F)F)c2C)c2cc(P3(=O)CCN(C(=O)C4(CO)CC4)CC3)ncc2n1` [Example 178, 1-[1-(hydroxymethyl)cyclopropane-1-carbonyl]-4-[2-methyl-4-{{(1R)-1-[2-methyl-3-(trifluoromethyl)phenyl]ethyl}amino)pyrido[3,4-d]pyrimidin-6-yl]-1,4lambda^5-azaphosphinan-4-one], 7.94 nM; to `Cc1nc(N[C@H](C)c2cccc(C(F)(F)CNS(C)(=O)=O)c2F)c2cc(P3(=O)CCN(C(=O)C4CC4)CC3)ncc2n1` [Example 179, N-(2-{3-[(1R)-1-({6-[1-(cyclopropanecarbonyl)-4-oxo-1,4lambda^5-azaphosphinan-4-yl]-2-methylpyrido[3,4-d]pyrimidin-4-yl}amino)ethyl]-2-fluorophenyl}-2,2-difluoroethyl)methanesulfonamide], 3.68 nM.
With `CC(=O)NCC(F)(F)c1cccc([C@@H](C)Nc2nc(C)nc3cnc(P4(=O)CCN(C(=O)C5CC5)CC4)cc23)c1F` [Example 180, N-(2-{3-[(1R)-1-({6-[1-(cyclopropanecarbonyl)-4-oxo-1,4lambda^5-azaphosphinan-4-yl]-2-methylpyrido[3,4-d]pyrimidin-4-yl}amino)ethyl]-2-fluorophenyl}-2,2-difluoroethyl)acetamide], the IC50 amounted to 4.6 nM.
The same measure for `Cc1nc(N[C@H](C)c2cccc(C(F)(F)CN(C)S(C)(=O)=O)c2F)c2cc(P3(=O)CCN(C(=O)C4CC4)CC3)ncc2n1` [Example 181, N-(2-{3-[(1R)-1-({6-[1-(cyclopropanecarbonyl)-4-oxo-1,4lambda^5-azaphosphinan-4-yl]-2-methylpyrido[3,4-d]pyrimidin-4-yl}amino)ethyl]-2-fluorophenyl}-2,2-difluoroethyl)-N-methylmethanesulfonamide]: 2.95 nM; for `CC(=O)N(C)CC(F)(F)c1cccc([C@@H](C)Nc2nc(C)nc3cnc(P4(=O)CCN(C(=O)C5CC5)CC4)cc23)c1F` [Example 182, N-(2-{3-[(1R)-1-({6-[1-(cyclopropanecarbonyl)-4-oxo-1,4lambda^5-azaphosphinan-4-yl]-2-methylpyrido[3,4-d]pyrimidin-4-yl}amino)ethyl]-2-fluorophenyl}-2,2-difluoroethyl)-N-methylacetamide]: 3.95 nM.
To `Cc1nc(N[C@H](C)c2cccc(C(F)F)c2F)c2cc(P3(=O)CCN(C(N)=O)CC3)ncc2n1` [Example 183] belongs 8.38 nM; to `Cc1nc(N[C@H](C)c2cccc(C(F)(F)F)c2C)c2cc(P3(=O)CCN(C(=O)NC4CC4)CC3)ncc2n1` [Example 184], 5.62 nM; to `Cc1nc(N[C@H](C)c2cccc(C(F)(F)F)c2C)c2cc(P3(=O)CCN(C(=O)NCC(F)F)CC3)ncc2n1` [Example 185], 3.86 nM.
To `Cc1nc(N[C@H](C)c2cccc(C(F)(F)F)c2C)c2cc(P3(=O)CCN(C(N)=O)CC3)ncc2n1` [Example 186] belongs 4.71 nM; to `CCOC(=O)N1CCP(=O)(c2cc3c(N[C@H](C)c4cccc(C(F)F)c4F)nc(C)nc3cn2)CC1` [Example 187], 12 nM; to `Cc1nc(N[C@H](C)c2cccc(C(F)(F)F)c2C)c2cc(P3(=O)CCN(C(=O)N(C)C)CC3)ncc2n1` [Example 188], 6.34 nM.
With `CCOC(=O)N1CCP(=O)(c2cc3c(N[C@H](C)c4cccc(C(F)(F)F)c4C)nc(C)nc3cn2)CC1` [Example 189], the IC50 amounted to 20.6 nM.
To `CC(=O)N1CCP(=O)(c2cc3c(N[C@H](C)c4cccc(C(F)F)c4C)nc(C)nc3cn2)CC1` [Example 190] belongs 5.9 nM.

The record behind these values is US20240247015A1, “PHOSPHORUS DERIVATIVES AS NOVEL SOS1 INHIBITORS” (BAYER AKTIENGESELLSCHAFT, priority 2021, published 2024).
